ChEMBL document CHEMBL4665855, “Discovery of DS34942424: An orally potent analgesic without mu opioid receptor agonist activity” (Bioorg Med Chem, 2020)

How the values were obtained:
[1] = Effect on spontaneous locomotory activity in orally dosed ddY mouse measured for 1 hr; format: ADME, organism-based; conditions: in vivo, po
[2] = Protective index, ratio of ID50 for locomotory activity to ED50 for antinociceptive activity in orally dosed ddY mouse; format: toxicity, organism-based; conditions: in vivo, po
Mus musculus [3] = test: Antinociceptive activity in orally dosed ddY mouse model assessed as inhibition of acetic acid-induced writhes pretreated for 30 mins followed by acetic acid challenge and measured for 25 mins post acetic acid challenge; format: functional; conditions: po, 55 min
[4] = Cmax in ddY mouse at 10 mg/kg, po by LC-MS/MS method; format: ADME, organism-based; set-up: route oral, dose 10 mg/kg; conditions: in vivo
[5] = 1-Octanol-PBS buffer distribution coefficient, log D of compound at pH 7.4; format: physicochemical
hERG (KCNH2) [6] = target: T1, hERG (KCNH2) (Homo sapiens, UniProt Q12809); test: Inhibition of human ERG expressed in HEK293 cells at 10 uM at - 80 mV holding potential by whole cell patch clamp assay relative to control; format: cell-based; conditions: HEK293 cells expressing human ERG
T1 sequence (Q12809 whole entry): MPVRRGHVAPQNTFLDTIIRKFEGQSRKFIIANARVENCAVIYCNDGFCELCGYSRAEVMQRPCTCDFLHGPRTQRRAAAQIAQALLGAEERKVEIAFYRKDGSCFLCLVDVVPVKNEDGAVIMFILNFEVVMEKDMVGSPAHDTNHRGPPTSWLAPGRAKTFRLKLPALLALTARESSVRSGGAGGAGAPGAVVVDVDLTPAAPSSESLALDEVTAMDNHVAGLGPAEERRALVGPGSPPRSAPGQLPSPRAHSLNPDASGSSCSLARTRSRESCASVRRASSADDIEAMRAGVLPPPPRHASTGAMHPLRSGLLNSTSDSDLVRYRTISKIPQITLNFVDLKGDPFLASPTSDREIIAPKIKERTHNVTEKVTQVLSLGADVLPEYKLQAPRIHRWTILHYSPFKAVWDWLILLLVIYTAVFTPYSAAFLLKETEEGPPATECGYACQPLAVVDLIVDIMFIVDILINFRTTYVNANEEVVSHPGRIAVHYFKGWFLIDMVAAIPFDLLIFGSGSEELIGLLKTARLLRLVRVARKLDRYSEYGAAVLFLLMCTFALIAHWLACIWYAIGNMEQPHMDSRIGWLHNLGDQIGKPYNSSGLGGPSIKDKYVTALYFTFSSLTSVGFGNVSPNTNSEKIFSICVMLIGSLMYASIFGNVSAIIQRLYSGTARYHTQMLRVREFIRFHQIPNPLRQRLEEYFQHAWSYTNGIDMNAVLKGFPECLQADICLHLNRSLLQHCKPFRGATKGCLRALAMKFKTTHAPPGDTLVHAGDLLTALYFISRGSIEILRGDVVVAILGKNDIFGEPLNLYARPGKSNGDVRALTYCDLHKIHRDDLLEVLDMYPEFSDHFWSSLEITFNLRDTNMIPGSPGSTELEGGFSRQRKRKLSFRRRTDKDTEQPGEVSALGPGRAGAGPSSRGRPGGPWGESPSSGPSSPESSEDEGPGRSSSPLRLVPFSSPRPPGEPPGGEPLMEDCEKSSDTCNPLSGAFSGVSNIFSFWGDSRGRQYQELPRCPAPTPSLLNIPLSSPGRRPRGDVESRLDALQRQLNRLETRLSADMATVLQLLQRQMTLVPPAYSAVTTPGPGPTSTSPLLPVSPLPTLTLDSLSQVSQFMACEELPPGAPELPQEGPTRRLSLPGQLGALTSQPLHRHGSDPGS

Mus musculus [7] = test: Antinociceptive activity in ddY mouse model assessed as inhibition of acetic acid-induced writhes at 30 mg/kg, po pretreated for 30 mins followed by acetic acid challenge and measured for 25 mins post acetic acid challenge; format: functional; conditions: 55 min
hERG (KCNH2) [8] = target: T1, hERG (KCNH2); test: Inhibition of human ERG expressed in HEK293 cells at 30 uM at - 80 mV holding potential by whole cell patch clamp assay relative to control; format: cell-based; conditions: HEK293 cells expressing human ERG
[9] = Metabolic stability in CD1 mouse liver microsomes assessed as compound remaining measured after 0.5 hrs by LC/MS-MS analysis; format: ADME, Microsome; conditions: read-out: Stabilty
[10] = AUC in ddY mouse at 10 mg/kg, po by LC-MS/MS method; format: ADME, organism-based; set-up: dose 10 mg/kg; conditions: in vivo
Mu-type opioid receptor [11] = target: T2, Mu-type opioid receptor (Homo sapiens, UniProt P35372); test: Displacement of [3H]diprenorphine from human MOR incubated for 1 hr
T2 sequence (P35372 whole entry): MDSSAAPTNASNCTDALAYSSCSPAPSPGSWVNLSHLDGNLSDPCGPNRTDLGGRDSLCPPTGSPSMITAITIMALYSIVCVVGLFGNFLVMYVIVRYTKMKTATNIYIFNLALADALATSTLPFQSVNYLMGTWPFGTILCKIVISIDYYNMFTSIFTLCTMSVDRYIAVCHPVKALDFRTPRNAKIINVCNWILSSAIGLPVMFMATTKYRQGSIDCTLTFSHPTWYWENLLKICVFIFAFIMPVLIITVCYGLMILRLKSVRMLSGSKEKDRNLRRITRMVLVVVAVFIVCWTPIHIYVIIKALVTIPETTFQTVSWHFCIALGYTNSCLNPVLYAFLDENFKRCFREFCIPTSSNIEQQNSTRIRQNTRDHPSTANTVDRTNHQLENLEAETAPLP

[12] = Half life in ddY mouse at 10 mg/kg, po by LC-MS/MS method; format: ADME, organism-based; conditions: in vivo
Mu-type opioid receptor [13] = target: T2, Mu-type opioid receptor; test: Agonist activity at human MOR expressed in CHOK1 cells assessed as inhibition of forskolin-stimulated cAMP accumulation by FRET assay relative to DAMGO; format: cell-based; conditions: CHO-K1, human
Mus musculus [14] = test: Analgesic activity in formalin-induced orally dosed ddY mouse model of hyperalgesia assessed as time spent in paw licking during acute phase pretreated for 30 mins followed by formalin challenge and measured for 10 mins; format: functional; conditions: po, 0.5 h

C/C=C1/CN2CC[C@H]1C(=O)c1[nH]c3ccccc3c1C2
ID50 [1]: 69 mg/kg
selectivity ratio [2]: 2.2
ED50 (Mus musculus [3]): 32 mg/kg

CN1C(=O)c2ccccc2CN2C[C@@H]1C1(CC1)C2
Cmax [4]: 5240 nM
logD [5]: 0.5
inhibition at 10 µM (hERG (KCNH2) [6]): 14%
inhibition in vivo at 30 mg/kg (Mus musculus [7]): 84%
inhibition at 30 µM (hERG (KCNH2) [8]): 15%
remaining at 0.5 h [9]: 81%
ED50 (Mus musculus [3]): 15 mg/kg
AUC [10]: 5.24 µM·h

CN1C(=O)c2cc(F)ccc2CN2C[C@@H]1C1(CC1)C2
logD [5]: 0.9
inhibition at 30 µM (hERG (KCNH2) [8]): 14%
remaining at 0.5 h [9]: 81%
ED50 (Mus musculus [3]): 36 mg/kg

CN1C(=O)c2ccc(F)cc2CN2C[C@@H]1C1(CC1)C2
Cmax [4]: 1470 nM
EC50 (Mu-type opioid receptor [11]): > 100 µM
logD [5]: 0.9
half-life [12]: 1.9 h
Emax (Mu-type opioid receptor [13]): 18%
ED50 (Mus musculus [14]): 16 mg/kg
ID50 [1]: 66 mg/kg
inhibition at 30 µM (hERG (KCNH2) [8]): 2%
selectivity ratio [2]: 10.3
remaining at 0.5 h [9]: 83%
ED50 (Mus musculus [3]): 6.4 mg/kg
AUC [10]: 1.74 µM·h

CC1c2ccccc2C(=O)N(C)[C@H]2CCN1C2 (some centres undefined)
logD [5]: 0.3
inhibition at 10 µM (hERG (KCNH2) [6]): 6%
inhibition in vivo at 30 mg/kg (Mus musculus [7]): 31%
remaining at 0.5 h [9]: 81%

CN1C(=O)c2ccccc2CN2CCC[C@H]1C2
Cmax [4]: 1970 nM
logD [5]: 0.3
inhibition at 10 µM (hERG (KCNH2) [6]): 5%
inhibition in vivo at 30 mg/kg (Mus musculus [7]): 77%
remaining at 0.5 h [9]: 62%
ED50 (Mus musculus [3]): 23 mg/kg
AUC [10]: 1.97 µM·h

CN1C(=O)c2c(F)cccc2CN2C[C@@H]1C1(CC1)C2
logD [5]: 1
inhibition at 30 µM (hERG (KCNH2) [8]): 0%
remaining at 0.5 h [9]: 79%
ED50 (Mus musculus [3]): 35 mg/kg

CN1C(=O)c2ccccc2CN2CC[C@H]1C2
Cmax [4]: 3740 nM
logD [5]: 0.3
inhibition at 10 µM (hERG (KCNH2) [6]): 5%
ID50 [1]: > 85 mg/kg
inhibition in vivo at 30 mg/kg (Mus musculus [7]): 97%
selectivity ratio [2]: > 3.4
remaining at 0.5 h [9]: 82%
ED50 (Mus musculus [3]): 25 mg/kg
AUC [10]: 7.79 µM·h

CCN1C(=O)c2ccccc2CN2CC[C@H]1C2
logD [5]: 0.4
inhibition at 10 µM (hERG (KCNH2) [6]): 6%
inhibition in vivo at 30 mg/kg (Mus musculus [7]): 45%
remaining at 0.5 h [9]: 80%

CN1C(=O)c2cccc(F)c2CN2C[C@@H]1C1(CC1)C2
logD [5]: 0.9
inhibition at 30 µM (hERG (KCNH2) [8]): 0%
remaining at 0.5 h [9]: 79%
ED50 (Mus musculus [3]): 14 mg/kg

CC12CCN(CC1)Cc1c([nH]c3ccccc13)C2=O
ID50 [1]: 16 mg/kg
selectivity ratio [2]: 2.1
ED50 (Mus musculus [3]): 7.8 mg/kg

CN1C(=O)c2[nH]c3ccccc3c2CN2CC[C@H]1C2
ID50 [1]: 19 mg/kg
selectivity ratio [2]: 2.1
ED50 (Mus musculus [3]): 8.7 mg/kg

O=C1c2ccccc2CN2CCCN1CC2
logD [5]: 0.6
inhibition at 10 µM (hERG (KCNH2) [6]): -1%
inhibition in vivo at 30 mg/kg (Mus musculus [7]): 24%
remaining at 0.5 h [9]: 78%
